Measured values reported in PMC11229689, “In Vitro Selection of Macrocyclic L-α/D-α/β/γ-Hybrid Peptides Targeting IFN-γ/IFNGR1 Protein–Protein Interaction” (Journal of the American Chemical Society, 2024).
Like-named read-outs stand apart in the source and are kept apart here. *1 amine or outer side, *2 acyl side, *3 side chain or, on linkers, in order; H or OH if unused. Where a SMILES comes first, the peptide text is derived from it. Bridges are numbered along the chain shown (N, C = ends). [ ]: non-standard residue; d: D form. Acbc(trans-1,3) = O=C([C@H]1C[C@H](N[*:1])C1)[*:2]; Acbc(cis-1,3) = O=C([C@H]1C[C@@H](N[*:1])C1)[*:2]; X1 = O=C([C@@H]1CCC[C@@H]1N[*:1])[*:2]

What was measured:
[1] = molecular target: T1, Fc-tagged human IFNGR1 (Homo sapiens, UniProt P15260); experiment: Binding kinetics and affinity to IFNGR1 by surface plasmon resonance (SPR); details: for kon: read-out: ka
T1 construct: purchased ACROBiosystems
T1 sequence (P15260 18-489): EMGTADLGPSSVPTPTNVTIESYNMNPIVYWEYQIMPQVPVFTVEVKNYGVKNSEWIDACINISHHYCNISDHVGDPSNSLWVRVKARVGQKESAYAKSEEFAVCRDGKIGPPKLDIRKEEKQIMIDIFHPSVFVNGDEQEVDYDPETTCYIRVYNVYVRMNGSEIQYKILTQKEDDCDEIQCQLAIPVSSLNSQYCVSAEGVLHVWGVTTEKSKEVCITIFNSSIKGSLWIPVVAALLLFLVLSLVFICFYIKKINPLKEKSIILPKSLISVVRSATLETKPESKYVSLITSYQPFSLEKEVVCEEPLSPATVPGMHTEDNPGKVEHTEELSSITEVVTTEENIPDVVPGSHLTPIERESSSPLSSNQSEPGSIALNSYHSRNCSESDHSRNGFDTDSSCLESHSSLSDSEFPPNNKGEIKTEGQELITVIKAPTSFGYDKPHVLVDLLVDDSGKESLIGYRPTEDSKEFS
Experimental: (§1) Binding affinities of IA1 and IA2 against IFNGR1 were evaluated by surface plasmon resonance (SPR) (Table 1 and SI Figure S6A). […] To investigate the contribution of the N-terminal [yVPβ^1RR] motif and β^1 residue in IA1, three scrambled peptides IA1s1–3 and a variant IA1β^14A were synthesized and evaluated. […] We next evaluated inhibitory activities of IA1 and IA2 against the ligand–receptor PPI between IFN-γ and IFNGR1 using AlphaLISA (Table 1 and SI Figure S7).[37] […] We also determined the serum half-lives of IA1 and IA2, considering peptidase resistance as an important factor for therapeutic peptides.[24] A sample peptide and a peptidase-resistant internal standard peptide were coincubated in human serum at 37 °C, and the relative amount of the remaining sample peptide was estimated by LC/MS. […]
Evaluation of binding affinity of peptides by surface plasmon resonance The binding affinities of selected peptides and IFNGR1 were analyzed by surface plasmon resonance (SPR) using a Biacore T200 instrument (Cytiva) at 25 °C with the following running buffer: 10 mM Tris-HCl (pH 8.0), 150 mM NaCl, 0.05% (v/v) Tween 20 , and 0.1% (v/v) DMSO. Fc-tagged IFNGR1 was immobilized on a series S sensor chip protein G (Cytiva) to a surface density of 1,200–1,600 response units following the immobilization protocols provided by Cytiva. The kinetic constants were determined by a single-cycle kinetics method by the injection of five different concentrations (twofold dilution series) of each peptide at a flow rate of 30 μL/min. The resulting sensorgrams were fitted to the standard 1:1 interaction model and analyzed using Biacore evaluation software. […]

[2] = Serum stability assay (LC/MS); assay type: in vitro ADME, human; details: human serum, 37 °C, LC/MS, relative to internal standard peptide, n = 3, read-out: half-life in human serum (t1/2) (converted)
Experimental: as §1
10–200 μM synthetic peptide and 5 μM serum-resistant internal standard peptide consisting only of D-amino acids (NH2-PEG5-wstndwstnd-PEG5-CONH2)3 were mixed and incubated in human serum (Cosmo Bio, 12181201) at 37 °C for up to 120 h. At each time point, 4 μL of the mixture was removed and quenched by adding 12 μl methanol. Following centrifugation (15,000 g, 4 °C, 5 min), 10 μL of the supernatant was mixed with 40 μl of 1% (v/v) TFA. Following centrifugation (15,000 g, 4 °C, 5 min), the supernatant was collected for LC/MS analysis, which used a reverse-phase column (ACQUITY UPLC BEH C18, 1.7 μm, 2.1 × 150 mm; Waters) and a Xevo G2-XS QTof system (Waters) with a linear gradient from 1% B to 61% B. Buffer A was water with 0.1% (v/v) formic acid; buffer B was acetonitrile with 0.1% (v/v) formic acid. The percentages of remaining peptides were determined by the peak area integration of the chromatograms. For tandem mass spectrometry, MS/MS spectra were acquired with a 0.2 s scan time, with 10−30 eV collision energy. The obtained LC/MS data was analyzed using MassLynx 4.1 (Waters). […]

[3] = SPR, 25 °C, 1:1 binding model, read-out: KD
[4] = SPR, 25 °C, single-cycle kinetics, 1:1 binding model

| Structure (SMILES) | Kd [1, 3] [nM] | kon [1, 4] [M⁻¹ s⁻¹] | half-life ([2]; human) [min] | Kd [1] [nM] | kon [1] [M⁻¹ s⁻¹] | half-life [2] [min] |
| --- | --- | --- | --- | --- | --- | --- |
| CC(C)[C@@H]1NC(=O)[C@H](Cc2ccc(O)cc2)NC(=O)CSC[C@@H](C(N)=O)NC(=O)[C@H](CC(N)=O)NC(=O)[C@H](CO)NC(=O)[C@H](CCCNC(=N)N)NC(=O)[C@H]2C[C@H](C2)NC(=O)[C@H](Cc2c[nH]cn2)NC(=O)[C@H](CC(N)=O)NC(=O)[C@H]([C@@H](C)O)NC(=O)[C@H](Cc2c[nH]cn2)NC(=O)[C@H](CCCNC(=N)N)NC(=O)[C@H](CCCNC(=N)N)NC(=O)[C@@H]2CCC[C@@H]2NC(=O)[C@@H]2CCCN2C1=O [IA1YC, ^AcYVPβ^1RRHTNHγ^1RSNC-NH2] ({CH2CO}-YVP[X1]RRHTNH[Acbc(cis-1,3)]RSNC-NH2; thioether N-15) | 1400 ± 200 | 3600 ± 100 | 156 ± 6 |  |  |  |
| CC(C)[C@@H]1NC(=O)[C@@H]2CCC[C@@H]2NC(=O)[C@H](CCCNC(=N)N)NC(=O)[C@H](Cc2c[nH]cn2)NC(=O)[C@@H]2CCCN2C(=O)[C@H](CCCNC(=N)N)NC(=O)[C@H]2C[C@H](C2)NC(=O)[C@H]([C@@H](C)O)NC(=O)[C@H](CCCNC(=N)N)NC(=O)[C@H](CC(N)=O)NC(=O)[C@H](CO)NC(=O)[C@@H](Cc2ccc(O)cc2)NC(=O)CSC[C@H](C(N)=O)NC(=O)[C@H](Cc2c[nH]cn2)NC(=O)[C@H](CC(N)=O)NC1=O [IA1s1, ^AcySNRTγ^1RPHRβ^1VNHc-NH2] ({CH2CO}-[dY]SNRT[Acbc(cis-1,3)]RPHR[X1]VNH[dC]-NH2; thioether N-15) | > 10000 |  |  |  |  |  |
| CC(C)[C@@H]1NC(=O)[C@@H](Cc2ccc(O)cc2)NC(=O)CSC[C@H](C(N)=O)NC(=O)[C@H]([C@@H](C)O)NC(=O)[C@H](CC(N)=O)NC(=O)[C@H](Cc2c[nH]cn2)NC(=O)[C@H](CC(N)=O)NC(=O)[C@H](CCCNC(=N)N)NC(=O)[C@H](Cc2c[nH]cn2)NC(=O)[C@H]2C[C@H](C2)NC(=O)[C@H](CO)NC(=O)[C@H](CCCNC(=N)N)NC(=O)[C@H](CCCNC(=N)N)NC(=O)[C@@H]2CCC[C@@H]2NC(=O)[C@@H]2CCCN2C1=O [IA1s2, ^AcyVPβ^1RRSγ^1HRNHNTc-NH2] ({CH2CO}-[dY]VP[X1]RRS[Acbc(cis-1,3)]HRNHNT[dC]-NH2; thioether N-15) | 2200 ± 200 | 2200 ± 200 |  |  |  |  |
| CC(C)[C@@H]1NC(=O)[C@H](CCCNC(=N)N)NC(=O)[C@@H]2CCC[C@@H]2NC(=O)[C@@H](Cc2ccc(O)cc2)NC(=O)CSC[C@H](C(N)=O)NC(=O)[C@H](CC(N)=O)NC(=O)[C@H](CO)NC(=O)[C@H](CCCNC(=N)N)NC(=O)[C@H]2C[C@H](C2)NC(=O)[C@H](Cc2c[nH]cn2)NC(=O)[C@H](CC(N)=O)NC(=O)[C@H]([C@@H](C)O)NC(=O)[C@H](Cc2c[nH]cn2)NC(=O)[C@H](CCCNC(=N)N)NC(=O)[C@@H]2CCCN2C1=O [IA1s3, ^Acyβ^1RVPRHTNHγ^1RSNc-NH2] ({CH2CO}-[dY][X1]RVPRHTNH[Acbc(cis-1,3)]RSN[dC]-NH2; thioether N-15) | > 10000 |  |  |  |  |  |
| CC(C)[C@@H]1NC(=O)[C@@H](Cc2ccc(O)cc2)NC(=O)CSC[C@H](C(N)=O)NC(=O)[C@H](CC(N)=O)NC(=O)[C@H](CO)NC(=O)[C@H](CCCNC(=N)N)NC(=O)[C@H]2C[C@H](C2)NC(=O)[C@H](Cc2c[nH]cn2)NC(=O)[C@H](CC(N)=O)NC(=O)[C@H]([C@@H](C)O)NC(=O)[C@H](Cc2c[nH]cn2)NC(=O)[C@H](CCCNC(=N)N)NC(=O)[C@H](CCCNC(=N)N)NC(=O)[C@H](C)NC(=O)[C@@H]2CCCN2C1=O [IA1β^14A, ^AcyVPA RRHTNHγ^1RSNc-NH2] ({CH2CO}-[dY]VPARRHTNH[Acbc(cis-1,3)]RSN[dC]-NH2; thioether N-15) | > 10000 |  | 42.6 ± 6 |  |  |  |
| CC(C)[C@@H]1NC(=O)[C@H](Cc2ccc(O)cc2)NC(=O)CSC[C@@H](C(N)=O)NC(=O)[C@H](CCCNC(=N)N)NC(=O)[C@H](CO)NC(=O)[C@H](CCCNC(=N)N)NC(=O)[C@H](Cc2c[nH]cn2)NC(=O)CNC(=O)[C@H]2C[C@H](C2)NC(=O)[C@H](Cc2c[nH]cn2)NC(=O)[C@H](CC(N)=O)NC(=O)[C@H](CCCNC(=N)N)NC(=O)[C@H](CCCNC(=N)N)NC(=O)[C@@H]2CCC[C@@H]2NC(=O)[C@H](C)NC1=O [IB1YC, ^AcYVAβ^1RRNHγ^1GHRSRC-NH2] ({CH2CO}-YVA[X1]RRNH[Acbc(cis-1,3)]GHRSRC-NH2; thioether N-15) | 1700 ± 200 | 2200 ± 300 |  |  |  |  |
| CC(C)[C@@H]1NC(=O)[C@H](Cc2ccc(O)cc2)NC(=O)CSC[C@@H](C(N)=O)NC(=O)[C@H](CC(N)=O)NC(=O)[C@H]2C[C@@H](C2)NC(=O)[C@H](CCCNC(=N)N)NC(=O)[C@@H]2CCCN2C(=O)[C@H]([C@@H](C)O)NC(=O)[C@H](CCCNC(=N)N)NC(=O)[C@H](CCCNC(=N)N)NC(=O)[C@H](CO)NC(=O)[C@H](CCCNC(=N)N)NC(=O)[C@H](CCCNC(=N)N)NC(=O)[C@@H]2CCC[C@@H]2NC(=O)[C@@H]2CCCN2C1=O [IB4YC, ^AcYVPβ^1RRSRRTPRγ^2NC-NH2] ({CH2CO}-YVP[X1]RRSRRTPR[Acbc(trans-1,3)]NC-NH2; thioether N-15) | 45 ± 5 | 58000 ± 11000 | 55.2 ± 6.6 |  |  |  |
| CC(C)[C@@H]1NC(=O)[C@@H](Cc2ccc(O)cc2)NC(=O)CSC[C@H](C(N)=O)NC(=O)[C@H](CC(N)=O)NC(=O)[C@H]2C[C@@H](C2)NC(=O)[C@H](CCCNC(=N)N)NC(=O)[C@@H]2CCCN2C(=O)[C@H]([C@@H](C)O)NC(=O)[C@H](CCCNC(=N)N)NC(=O)[C@H](CCCNC(=N)N)NC(=O)[C@H](CO)NC(=O)[C@H](CCCNC(=N)N)NC(=O)[C@H](CCCNC(=N)N)NC(=O)[C@H](C)NC(=O)[C@@H]2CCCN2C1=O [IB4β^14A, ^AcyVPA RRSRRTPRγ^2Nc-NH2] ({CH2CO}-[dY]VPARRSRRTPR[Acbc(trans-1,3)]N[dC]-NH2; thioether N-15) |  |  |  | 420 ± 120 | 8900 ± 2100 | 30 ± 1.8 |
| CC(C)[C@@H]1NC(=O)[C@H](Cc2ccc(O)cc2)NC(=O)CSC[C@@H](C(N)=O)NC(=O)[C@H](CC(N)=O)NC(=O)[C@H](Cc2c[nH]cn2)NC(=O)[C@H](CCCNC(=N)N)NC(=O)[C@H]2C[C@@H](C2)NC(=O)[C@H]([C@@H](C)O)NC(=O)[C@H](Cc2c[nH]cn2)NC(=O)[C@@H]2CCCN2C(=O)[C@H](CO)NC(=O)[C@H](CCCNC(=N)N)NC(=O)[C@H](CCCNC(=N)N)NC(=O)[C@@H]2CCC[C@@H]2NC(=O)[C@@H]2CCCN2C1=O [IB5YC, ^AcYVPβ^1RRSPHTγ^2RHNC-NH2] ({CH2CO}-YVP[X1]RRSPHT[Acbc(trans-1,3)]RHNC-NH2; thioether N-15) | 1900 ± 100 | 16000 ± 1000 | 840 ± 120 |  |  |  |
| CC(C)[C@@H]1NC(=O)[C@@H](Cc2ccc(O)cc2)NC(=O)CSC[C@H](C(N)=O)NC(=O)[C@H](CC(N)=O)NC(=O)[C@H](Cc2c[nH]cn2)NC(=O)[C@H](CCCNC(=N)N)NC(=O)[C@H]2C[C@@H](C2)NC(=O)[C@H]([C@@H](C)O)NC(=O)[C@H](Cc2c[nH]cn2)NC(=O)[C@@H]2CCCN2C(=O)[C@H](CO)NC(=O)[C@H](CCCNC(=N)N)NC(=O)[C@H](CCCNC(=N)N)NC(=O)[C@H](C)NC(=O)[C@@H]2CCCN2C1=O [IB5β^14A, ^AcyVPA RRSPHTγ^2RHNc-NH2] ({CH2CO}-[dY]VPARRSPHT[Acbc(trans-1,3)]RHN[dC]-NH2; thioether N-15) | > 10000 |  | 24.6 ± 1.8 |  |  |  |
